Test: Human HepG2 cell viability assay in 384 well format
Type: toxicity, cell-based
Set-up: dose 125 nL, time 70.5 hour; cytotoxicity at 70.5 h: concentration not given beside the values
Details: HepG2 cells, read-out: Inhibition

| Structure (SMILES) | cytotoxicity at 70.5 h [%] |
| --- | --- |
| Cc1sc(C(=O)O)cc1S(=O)(=O)Nc1c(F)cccc1-n1cccn1 | 18.5 |
| O=C(NCCc1ccncc1)c1ccc(N2CCOCC2)cc1 | 4.27 |
| CS(=O)(=O)N1C[C@H]2C[C@H](C(=O)N3CCOCC3)[C@@H](C1)O2 | -6.47 |
| CCOCCC1(CNC(=O)c2ccncc2)CCC1 | -5.08 |
| Cn1cc(C#N)cc1C(=O)Nc1ccc(CN2CCOCC2)cn1 | -2.71 |
| NS(=O)(=O)c1cc(C(=O)N2CCCC(n3ccnc3)C2)cs1 (centres undefined) | -3.09 |
| Cc1cnn(CC(C)NCc2nc(-c3cccnc3)no2)c1 (centres undefined) | 3.38 |
| CCS(=O)(=O)N1CCC2(CN(C(=O)c3cscn3)C2)C1 | -3.48 |
| CCCn1nc2c(cc1=O)CN(Cc1nc(-c3ccoc3)no1)CC2 | -2.82 |
| CCOCC1CN(Cc2ccoc2)Cc2nn(CC3CC3)cc21 (centres undefined) | 5.44 |
| CC(C)c1cnc(CN2CCCS2(=O)=O)o1 | -1.78 |
| CC(C)C(NC(=O)NCC1(CO)CC1)c1nnc2n1CCC2 (centres undefined) | -4.32 |
| CCOC(=O)CNC(=O)NCc1cccn1Cc1ccccc1C | -17.6 |
| CC1CCC2(CC1)NC(=O)c1cc(Br)ccc1-n1nnnc12 (centres undefined) | -4.82 |
| CCC(CN1CCCC1)n1cncc1-c1cnn(-c2ccccc2)c1 (centres undefined) | -2.29 |
| O=C(O)C(c1ccc2[nH]ccc2c1)N1CCOCC1 (centres undefined) | 9.07 |
| O=C(CC1CSc2nccc(=O)n21)NCc1cc(-c2ccco2)on1 (centres undefined) | -11.9 |
| COc1cccc(CCNS(=O)(=O)c2ccc(NC(C)=O)cc2)c1 | 2.8 |
| O=C(NCc1cccc(F)c1)N1CCC2(CC(=O)N(c3ccsc3)C2)C1 (centres undefined) | 4.74 |
| Cn1cc(C2CCCN2C(=O)COC2CCCCC2)cn1 (centres undefined) | -11.1 |
| Cc1ccsc1CN1C[C@@H]2CN(Cc3cccnc3)CCO[C@@H]2C1 | 10.4 |
| CCc1[nH]c2ccc(CNc3cncc(C(=O)N(C)C)n3)cc2c1C | -0.482 |
| Cc1ccc(C(O)CNC(=O)NCc2csc(C)n2)cc1 (centres undefined) | -2.4 |

| Structure (SMILES) | cytotoxicity at 70.5 h [%] |
| --- | --- |
| Cc1ccc(C(C)NC(=O)N2CCN(S(C)(=O)=O)CC2)o1 (centres undefined) | 1.52 |
| Cc1nc(CCNC(=O)NCC(c2ccco2)N(C)C)cs1 (centres undefined) | -14.9 |
| CCC(C)C(=O)NCc1c(C)nn(C)c1N1CCCN(C)CC1 (centres undefined) | 1.79 |
| O=S(=O)(c1cccc(Cl)c1)N1CCCC(Cn2cncn2)C1 (centres undefined) | -4.36 |
| O=C1COc2cc(C(=O)N3CCCC(n4cccn4)C3)ccc2N1 (centres undefined) | -1.96 |
| CNC(=O)C(C)(C)N1CCC[C@H]1C(=O)NCC1CC1 | 9.57 |
| CCN1CCCC12CCN(C(=O)c1ccsc1)CC2 | -7.76 |
| O=C1COC2(CCN(C(=O)[C@H]3CCCO3)CC2)CN1Cc1ccccn1 | 17.4 |
| CC(C#N)CN(C)Cc1ccc(Cl)c2cccnc12 (centres undefined) | -3.13 |
| Cc1ccc(CN2CCCC3(COCCN(Cc4c[nH]nn4)C3)C2)o1 (centres undefined) | 0.0506 |
| CN(C)C1CCCN(C(=O)NCCNC(=O)C2CCCCC2)C1 (centres undefined) | 3.73 |
| COCc1nc(CNC(=O)c2cc(C)c(C)[nH]c2=O)no1 | 2.71 |
| CCc1nc(C)c(C(=O)N2CCNCC2C(=O)NCc2ccncc2)o1 (centres undefined) | -5.31 |
| O=C(Nc1ccnc(OC2CCOC2)c1)c1ccc(F)cc1Cl (centres undefined) | 0.257 |
| CC(C)N1CCC(CNC(=O)COc2ccc(F)cc2F)C1 (centres undefined) | 4.12 |
| COc1cccc([C@@H]2CN(C3CCCC3)C[C@H]2C(=O)O)c1 | -2.63 |
| O=C(c1cc(C2CC2)on1)N1CCC(Oc2ncccc2Br)CC1 | -13.4 |
| Cc1cnc(CN(C)C2CCN(Cc3nc4c(F)cccc4[nH]3)C2)o1 (centres undefined) | 1.64 |
| Cn1cc(CN2CCC(F)(F)C3(CCN(c4ncc(F)cn4)C3)C2)cn1 (centres undefined) | -13.8 |
| O=C(N[C@@H]1CC[C@@H](N2CCOCC2)[C@@H]1O)c1cnn2cccnc12 | 21.8 |
| CCc1ccc(C(=O)N2CCC(c3nncn3CC)CC2)o1 | -6.22 |
| Cc1cc(CN2CCN(Cc3cc(C#N)ccc3F)CC2)no1 | 0.144 |
| COCCCC(=O)N(C)c1ccc(F)c(Cl)c1 | -8.74 |

| Structure (SMILES) | cytotoxicity at 70.5 h [%] |
| --- | --- |
| OCC1(CCOc2ccccc2)CCN(c2ccc(Cl)cn2)CC1 | -7.7 |
| NC(=O)C1CCCN1Cc1cccc(NC(=O)c2cc(Cl)cc(Cl)c2)c1 (centres undefined) | -15.9 |
| CCC(C(=O)NCc1noc(Cc2cccs2)n1)n1cccn1 (centres undefined) | 26 |
| Cc1nc(C)n(C2CCCN(C(=O)Cc3cn4ccccc4n3)C2)n1 (centres undefined) | 1.25 |
| Cc1cnn(C2CN(c3nc(C)cc(N(C)C)n3)C2)c1 | 0.987 |
| Cc1cc(S(=O)(=O)N(C)CC(N)=O)ccc1Br | -2.54 |
| Cc1nc(S(=O)(=O)CCn2cccn2)n(CC2CCCO2)c1C (centres undefined) | -2.87 |
| CSCC(=O)N1CCOC(c2nc(C)n[nH]2)C1 (centres undefined) | -12.3 |
| Cc1ccc(Cl)cc1N1CCC(CNC(=O)CCn2ccnn2)C1 (centres undefined) | -6.67 |
| O=C(c1cccn1-c1ccc2c(c1)OCCO2)N1CCCC1 | -11.9 |
| CCc1nnc2n1CCN(Cc1ncc(-c3ccc(F)cc3)o1)C2 | -6.74 |
| O=c1nc(SCc2ccc(Cl)cc2)c2c(n1CCO)CCC2 | 20.9 |
| Cc1cc(O)cc(=O)n1CCCC(=O)Nc1n[nH]c2cc(Br)ccc12 | -13.4 |
| Oc1ccc2oc3c(c2c1CN1CCOCC1)CCCC3 | -8.06 |
| O=C(NCCN1CCCC1)c1ccc2c(-c3nccs3)noc2c1 | -6.42 |
| Cc1ccc(C(=O)N2CCO[C@H]3[C@H](OCc4ccccn4)CC[C@@H]32)o1 | -3.92 |
| CS(=O)(=O)CCOc1nc(-c2ccccc2Cl)no1 | -102 |
| Cc1ccc(S(=O)(=O)N2CSCC2C(=O)NCC(F)(F)F)cc1C (centres undefined) | -3.59 |
| Cn1nc(C2CN(C(=O)c3ccncc3)C2)c2nccnc21 | 13.9 |
| Cc1nn(C)c(C)c1C1CCCN1C(=O)c1ccc(NC2CC2)nc1 (centres undefined) | -17.5 |
| c1csc(CCN2CCCC2c2noc(C3CC3)n2)c1 (centres undefined) | -7.22 |
| CC(c1cccc(S(N)(=O)=O)c1)N(C)CCOC(C)(C)C (centres undefined) | -2.34 |
| CNC(=O)[C@@H]1C[C@H](n2cc(-c3ccc(CN4CC=CC4)cc3)nn2)CN1 | 27 |

| Structure (SMILES) | cytotoxicity at 70.5 h [%] |
| --- | --- |
| Cc1ccc(CNCc2cccc3cn[nH]c23)c(OC2CCOC2)c1 (centres undefined) | 3.6 |
| COCCc1ncc(-c2c(C#N)c(N)nc3c2CCc2[nH]ccc2-3)cn1 | -3.18 |
| CN(Cc1ccccc1)C(=O)CCNS(=O)(=O)c1cccnc1 | 11.8 |
| Cc1cccc(CNc2n[nH]c(C)n2)c1 | -5.26 |
| C[C@@H]1CN(c2cc(N3CCC(O)CC3)ncn2)C[C@@]1(O)C1CC1 | -0.962 |
| CC(C)c1noc(CN(C)C(=O)c2ccccc2-c2nc[nH]n2)n1 | 6.97 |
| CC(NC(=O)CN1CCCC1=O)c1ccc(Cl)s1 (centres undefined) | -9.58 |
| CC(C)CCN1CCN(C(=O)c2cnccn2)CC1 | 18.6 |
| COc1ccc2[nH]nc(CN3CCC(C(C)N4CCCC4)CC3)c2c1 (centres undefined) | -1.99 |
| CCOc1ccc(C(F)(F)F)cc1NCc1nc(C)c(C)o1 | -2.62 |
| CC(=O)NCCOc1c(C)cccc1C | -4.39 |
| COc1ccc(OCCNCCn2cccn2)cc1 | 3.51 |
| CCc1ncc2c(n1)CN(Cc1nc(-c3ccoc3)no1)CC2 | -3.42 |
| Cn1nccc1C1CCN(Cc2csc(-c3ncccn3)n2)CC1 | -5.7 |
| Cc1c(C)n(Cc2ccccn2)c2nc3c(c(N)c12)CCCCCC3 | 22 |
| COCCNC(=O)Nc1ccn(-c2cccc(C(F)(F)F)c2)n1 | 9.44 |
| CS(=O)(=O)N1CCc2sc(C(=O)NCc3ccccc3)cc21 | -9.68 |
| O=C(CCNc1ncccn1)Nc1cc(C(F)(F)F)c[nH]c1=O | -6.4 |
| CN(C)C(C(=O)N1CCCC1)c1ccccc1F (centres undefined) | -1.96 |
| Cn1ncc2c1CCCN(C(=O)C1CCCC1)C2 | -0.407 |
| O=C(CCc1ccccc1Cl)NS(=O)(=O)c1ccc2c(c1)OCCO2 | -2.93 |
| Cc1ccc(-n2nnc(C(=O)Nc3cc(C)nn3C)c2C2CC2)cc1 | 0.219 |
| CC(=O)c1ccc(CN2C[C@@H](CN3CCC(O)CC3)[C@@H](CO)C2)cc1 | -2.46 |

| Structure (SMILES) | cytotoxicity at 70.5 h [%] |
| --- | --- |
| CCc1ncc2c(n1)CN(CC(=O)Nc1nncs1)CC2 | -7.12 |
| CN(C)c1nc2c(c(N3CCCC4(CC3)CNC(=O)O4)n1)CCCC2 (centres undefined) | -1.83 |
| Cn1c(CO)cnc1SC1CCCN(c2ccccc2F)C1=O (centres undefined) | 6.04 |
| COCCN(CC1CCCN(C2Cc3ccccc3C2)C1)C(=O)CSC (centres undefined) | -2.79 |
| Cn1ncc(C(=O)N2CCN(CCS(C)(=O)=O)CC2)c1Cl | 18.4 |
| Cn1nc(C2CCCN2)c2c(C(=O)NCC(F)(F)F)cc(C3CC3)nc21 (centres undefined) | 17.1 |
| Cc1ccc2c(c1)CCC21CCN(C(=O)CO)CC1 | -8.48 |
| CN1CCN(C(=O)c2nc3c(s2)CCCN3C(=O)C2CC2)CC1 | -3.93 |
| Cc1cc2n(n1)[C@@H](C(F)(F)F)C[C@@H](C1CCN(C(=O)C(C)C)CC1)N2 | -1.78 |
| Cn1ccc2ccc(C(=O)Nc3nc[nH]n3)cc21 | 13.7 |
| Cc1c(C(=O)O)nnn1-c1cccc2cccnc12 | -13.1 |
| COc1cc(-c2nccn2CCn2cccn2)cc2c1OCO2 | -1.97 |
| O=c1c2sccc2nc2n1CCN(Cc1ccc(F)c(F)c1)CC2 | -9.83 |
| CCc1ccc(NC(=O)C2OC(c3cccs3)=NN2C(C)=O)cc1 (centres undefined) | 40.2 |
| Cc1nnc(C(C)N2CCCN(Cc3ccc(C#N)cc3)CC2)o1 (centres undefined) | -2.73 |
| O=C(c1ccncc1)N1CCC(c2nc(O)cc(-c3cccnc3)n2)C1 (centres undefined) | -17.2 |
| COc1ccc2c(c1)C(NCCc1ccccn1)CCCO2 (centres undefined) | 16.8 |
| CCN(CC)Cc1ccc(C(=O)N2CCCC2Cn2cccn2)cc1 (centres undefined) | -7.71 |
| COCCN1CC(c2cc(O)nc(NC(C)C)n2)CC1=O (centres undefined) | -6.05 |
| c1cncc(CN2CCc3ncnc(NCCc4c[nH]cn4)c3CC2)c1 | -1.46 |
| CC(=O)N(C)CC(=O)Nc1cccc(N2CCN(CC3CC3)CC2)c1 | -7.37 |
| Cc1noc(C)c1CN1C[C@@H](C(=O)O)[C@H](C(C)C)C1 | -10 |

Source: ChEMBL document CHEMBL3507680, “University of Dundee, Gates Library screen for HepG2 cell viability”
